According to patent US6737383B1, “Herbicidal oxadiazolidines” (priority 1999, dated 2004):

Legend:
[1] = system: duck salad; assay: Test B flood test duck salad; type: in vivo, Heteranthera limosa
In short: (§1)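 Each value is a visual injury score relative to controls, with 10 meaning complete control and 0 no effect. Evaluation took place twelve to sixteen days after the 2-leaf-stage plants were treated and kept in the greenhouse.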

[2] = system: smallflower flatsedge; assay: Test B flood test smallflower flatsedge; type: in vivo, Cyperus difformis
Procedure: At the same time, these crop and weed species were also treated with postemergence applications of test chemicals formulated in the same manner. Plants ranged in height from 2 to 18 cm (1- to 4-leaf stage) for postemergence treatments. Plant species in the flood test consisted of rice (Oryza sativa), smallflower flatsedge (Cyperus difformis), duck salad (Heteranthera limosa) and bamyardgrass (Echinochloa crus-galli) grown to the 2-leaf stage for testing. Treated plants and controls were maintained in a greenhouse for twelve to sixteen days, after which all species were compared to controls and visually evaluated. Plant response ratings, summarized in Table B, are based on a scale of 0 to 10 where 0 is no effect and 10 is complete control. A dash (−) response means no test result.

[3] = system: bamyardgrass; assay: Test B flood test barnyardgrass; type: in vivo, Echinochloa crus-galli
In short: as §1

[4] = system: giant foxtail; assay: Test B pre/postemergence giant foxtail; type: in vivo, Setaria faberii
In short: (§2)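 Herbicidal effect was estimated by eye on a ten-point control scale after plants spent twelve to sixteen days in a greenhouse following soil or foliar treatment. Foliar sprays targeted plants at one to four leaves; all doses were formulated in a non-phytotoxic solvent with surfactant.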

[5] = system: soybean; assay: Test B pre/postemergence soybean; type: in vivo, Glycine max
In short: as §2

[6] = system: blackgrass; assay: Test B pre/postemergence blackgrass; type: in vivo, Alopecurus myosuroides
In short: as §2

[7] = system: cocklebur; assay: Test B pre/postemergence cocklebur; type: in vivo, Xanthium strumarium
In short: as §2

[8] = system: velvetleaf; assay: Test B pre/postemergence velvetleaf; type: in vivo, Abutilon theophrasti
In short: as §2

[9] = system: crabgrass; assay: Test B pre/postemergence crabgrass; type: in vivo, Digitaria sanguinalis
In short: as §2

[10] = system: sugar beet; assay: Test B pre/postemergence sugar beet; type: in vivo, Beta vulgaris
In short: as §2

[11] = system: wild oat; assay: Test B pre/postemergence wild oat; type: in vivo, Avena fatua
In short: as §2

[12] = system: morningglory; assay: Test B pre/postemergence morningglory; type: in vivo, Ipomoea hederacea
In short: as §2

[13] = system: wheat; assay: Test B pre/postemergence wheat; type: in vivo, Triticum aestivum
In short: as §2

[14] = system: purple nutsedge; assay: Test B pre/postemergence purple nutsedge; type: in vivo, Cyperus rotundus
In short: as §2

[15] = system: bedstraw; assay: Test B pre/postemergence bedstraw; type: in vivo, Galium aparine
In short: as §2

[16] = system: corn; assay: Test B pre/postemergence corn; type: in vivo, Zea mays
In short: as §2

[17] = system: rape; assay: Test B pre/postemergence rape; type: in vivo, Brassica napus
In short: as §2

[18] = system: surinam grass; assay: Test B pre/postemergence surinam grass; type: in vivo, Brachiaria decumbens
In short: as §2

[19] = system: pigweed; assay: Test B pre/postemergence pigweed; type: in vivo, Amaranthus retroflexus
In short: as §2

[20] = Rate 62 g/ha, flood test species, Pre-emergence, visual evaluation after twelve to sixteen days
[21] = Rate 125 g/ha, under heading Pre-emergence, flood test species, visual evaluation after twelve to sixteen days
[22] = Rate 250 g/ha, Pre-emergence (flood test species), scale 0 to 10, 0 is no effect, 10 is complete control
[23] = Rate 500 g/ha, Pre-emergence section of Table B, 0 to 10 scale (0 no effect, 10 complete control)
[24] = Postemergence, Rate 62 g/ha, scale of 0 to 10, 0 is no effect, 10 is complete control
[25] = Postemergence, Rate 125 g/ha, scale 0 to 10, 0 is no effect, 10 is complete control
[26] = Postemergence, Rate 500 g/ha, scale 0 to 10, 0 is no effect, 10 is complete control
[27] = Preemergence, Rate 62 g/ha, scale 0 to 10 (0 no effect, 10 complete control)
[28] = Preemergence, Rate 125 g/ha, scale 0 to 10, 0 is no effect, 10 is complete control
[29] = Preemergence, Rate 500 g/ha, scale of 0 to 10 where 0 is no effect and 10 is complete control
[30] = Rate 250 g/ha, Postemergence, scale of 0 to 10 where 0 is no effect and 10 is complete control

CC(C)N(C(=O)n1oc(=O)n(CCc2ccccc2)c1=O)c1ccc(Cl)cc1 [Compound 538]
0: Plant response rating, Ducksalad (0 to 10 scale, 0 is no effect, 10 is complete control) [1, 20] | Ducksalad plant response rating (0 to 10 scale, 0 is no effect, 10 is complete control) [1, 21] | Ducksalad plant response rating [1, 22] | Ducksalad plant response rating [1, 23] | Plant response rating, S. Flatsedge (0 to 10 scale, 0 is no effect, 10 is complete control) [2, 20] | S. Flatsedge plant response rating (0 to 10 scale, 0 is no effect, 10 is complete control) [2, 21] | S. Flatsedge plant response rating [2, 22] | S. Flatsedge plant response rating [2, 23] | Plant response rating, Barnyardgrass (0 to 10 scale, 0 is no effect, 10 is complete control) [3, 20] | Barnyardgrass plant response rating (0 to 10 scale, 0 is no effect, 10 is complete control) [3, 21] | Barnyardgrass plant response rating [3, 22] | Barnyardgrass plant response rating [3, 23]

Cc1noc(C)c1Cn1c(=O)on(C(=O)N(c2ccc(Cl)cc2)C(C)C)c1=O [Compound 540]
8: Plant response rating, Crabgrass [9, 26] | Crabgrass plant response rating [9, 27] | Wild oats plant response rating [11, 29] | B. signalgrass plant response rating [18, 29]
5: Crabgrass plant response rating [9, 24] | Crabgrass plant response rating [9, 25] | Plant response rating, Crabgrass [9, 30] | Plant response rating, Morningglory [12, 30]
1: Soybean plant response rating [5, 24] | Soybean plant response rating [5, 25] | Plant response rating, Soybean [5, 26] | Plant response rating, Soybean [5, 30] | Plant response rating, Velvetleaf [8, 26]
2: Plant response rating, Blackgrass [6, 30] | Sugarbeets plant response rating [10, 25] | Plant response rating, Wild oats [11, 26] | Wild oats plant response rating [11, 28] | Wild oats plant response rating (0 to 10 scale) ([11]; Preemergence, Rate 250 g/ha) | Morningglory plant response rating [12, 24] | Corn plant response rating [16, 29] | Rape plant response rating [17, 25] | Rape plant response rating (0 to 10 scale) ([17]; Preemergence, Rate 250 g/ha) | Plant response rating, Redroot pigweed [19, 26] | Plant response rating, Redroot pigweed [19, 30]
9: Giant foxtail plant response rating [4, 27] | Giant foxtail plant response rating [4, 28] | Blackgrass plant response rating [6, 29] | Cocklebur plant response rating (0 to 10 scale) ([7]; Preemergence, Rate 250 g/ha) | Crabgrass plant response rating [9, 28] | Plant response rating, Bedstraw [15, 26]
7: Plant response rating, Blackgrass [6, 26] | Rape plant response rating [17, 29] | Plant response rating, Rape [17, 30]
3: Plant response rating, Giant foxtail [4, 26] | Bedstraw plant response rating [15, 25] | Plant response rating, B. signalgrass [18, 26] | Redroot pigweed plant response rating (0 to 10 scale) ([19]; Preemergence, Rate 250 g/ha)
10: Giant foxtail plant response rating (0 to 10 scale) ([4]; Preemergence, Rate 250 g/ha) | Giant foxtail plant response rating [4, 29] | Cocklebur plant response rating [7, 29] | Crabgrass plant response rating (0 to 10 scale) ([9]; Preemergence, Rate 250 g/ha) | Crabgrass plant response rating [9, 29] | Plant response rating, Bedstraw [15, 30] | Redroot pigweed plant response rating [19, 29]
0: Giant foxtail plant response rating [4, 24] | Giant foxtail plant response rating [4, 25] | Plant response rating, Giant foxtail [4, 30] | Soybean plant response rating [5, 27] | Soybean plant response rating [5, 28] | Soybean plant response rating (0 to 10 scale) ([5]; Preemergence, Rate 250 g/ha) | Soybean plant response rating [5, 29] | Blackgrass plant response rating [6, 24] | Blackgrass plant response rating [6, 25] | Blackgrass plant response rating [6, 27] | Blackgrass plant response rating [6, 28] | Blackgrass plant response rating (0 to 10 scale) ([6]; Preemergence, Rate 250 g/ha) | Cocklebur plant response rating [7, 24] | Cocklebur plant response rating [7, 25] | Plant response rating, Cocklebur [7, 26] | Cocklebur plant response rating [7, 27] | Cocklebur plant response rating [7, 28] | Plant response rating, Cocklebur [7, 30] | Velvetleaf plant response rating [8, 24] | Velvetleaf plant response rating [8, 25] | Velvetleaf plant response rating [8, 27] | Velvetleaf plant response rating [8, 28] | Velvetleaf plant response rating (0 to 10 scale) ([8]; Preemergence, Rate 250 g/ha) | Velvetleaf plant response rating [8, 29] | Plant response rating, Velvetleaf [8, 30] | Sugarbeets plant response rating [10, 24] | Sugarbeets plant response rating [10, 27] | Sugarbeets plant response rating [10, 28] | Sugarbeets plant response rating (0 to 10 scale) ([10]; Preemergence, Rate 250 g/ha) | Wild oats plant response rating [11, 24] | Wild oats plant response rating [11, 25] | Wild oats plant response rating [11, 27] | Plant response rating, Wild oats [11, 30] | Morningglory plant response rating [12, 27] | Morningglory plant response rating [12, 28] | Morningglory plant response rating (0 to 10 scale) ([12]; Preemergence, Rate 250 g/ha) | Morningglory plant response rating [12, 29] | Wheat plant response rating [13, 24] | Wheat plant response rating [13, 25] | Plant response rating, Wheat [13, 26] | Wheat plant response rating [13, 27] | Wheat plant response rating [13, 28] | Wheat plant response rating (0 to 10 scale) ([13]; Preemergence, Rate 250 g/ha) | Wheat plant response rating [13, 29] | Plant response rating, Wheat [13, 30] | Nutsedge plant response rating [14, 24] | Nutsedge plant response rating [14, 25] | Plant response rating, Nutsedge [14, 26] | Nutsedge plant response rating [14, 28] | Nutsedge plant response rating (0 to 10 scale) ([14]; Preemergence, Rate 250 g/ha) | Nutsedge plant response rating [14, 29] | Plant response rating, Nutsedge [14, 30] | Bedstraw plant response rating [15, 24] | Bedstraw plant response rating [15, 27] | Bedstraw plant response rating [15, 28] | Bedstraw plant response rating (0 to 10 scale) ([15]; Preemergence, Rate 250 g/ha) | Bedstraw plant response rating [15, 29] | Corn plant response rating [16, 24] | Corn plant response rating [16, 25] | Plant response rating, Corn [16, 26] | Corn plant response rating [16, 27] | Corn plant response rating [16, 28] | Corn plant response rating (0 to 10 scale) ([16]; Preemergence, Rate 250 g/ha) | Plant response rating, Corn [16, 30] | Rape plant response rating [17, 24] | Rape plant response rating [17, 27] | Rape plant response rating [17, 28] | B. signalgrass plant response rating [18, 24] | B. signalgrass plant response rating [18, 25] | B. signalgrass plant response rating [18, 27] | B. signalgrass plant response rating [18, 28] | B. signalgrass plant response rating (0 to 10 scale, 0 is no effect, 10 is complete control) ([18]; Preemergence, Rate 250 g/ha) | Plant response rating, B. signalgrass [18, 30] | Redroot pigweed plant response rating [19, 24] | Redroot pigweed plant response rating [19, 25] | Redroot pigweed plant response rating [19, 27] | Redroot pigweed plant response rating [19, 28]
4: Sugarbeets plant response rating [10, 29] | Morningglory plant response rating [12, 25]
6: Plant response rating, Sugarbeets [10, 26] | Plant response rating, Sugarbeets [10, 30] | Plant response rating, Morningglory [12, 26]
